{
  "source": "patent US12077503B2",
  "about": "“Substituted cyclic amides and their use as herbicides” (FMC CORPORATION, priority 2015, dated 2024)",
  "format_in_all_cases": "in vivo",
  "key": {"[1]": {"test_system": "giant foxtail (Setaria faberii)", "test": "Test A preemergence", "conditions": "Setaria faberi, pre-emergence, 240 h, 0 to 100 scale where 0 is no effect and 100 is complete control, read-out: Foxtail, Giant plant response rating", "in_short": "(§1)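 Preemergence directed soil spray on seeded pots, or postemergence application to plants 2–10 cm, one- to two-leaf. Solvent mixture non-phytotoxic, with surfactant. Scored ~10 d later, visually, 0–100 vs untreated.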"}, "[2]": {"test_system": "ryegrass, Italian (Italian ryegrass, Lolium multiflorum)", "test": "Test A preemergence", "conditions": "Lolium multiflorum, pre-emergence, 240 h, 0 to 100 scale where 0 is no effect and 100 is complete control, read-out: Ryegrass, Italian plant response rating", "in_short": "as §1"}, "[3]": {"test_system": "ragweed (common ragweed, Ambrosia elatior)", "test": "Test A preemergence", "conditions": "Ambrosia artemisiifolia, pre-emergence, 240 h, 0 to 100 scale where 0 is no effect and 100 is complete control, read-out: Ragweed plant response rating", "in_short": "as §1"}, "[4]": {"test_system": "pigweed (Amaranthus retroflexus)", "test": "Test A preemergence", "conditions": "Amaranthus retroflexus, pre-emergence, 240 h, 0 to 100 scale where 0 is no effect and 100 is complete control, read-out: Pigweed plant response rating"}, "[5]": {"test_system": "Kochia (Kochia scoparia)", "test": "Test A preemergence", "conditions": "Bassia scoparia, pre-emergence, 240 h, 0 to 100 scale where 0 is no effect and 100 is complete control, read-out: Kochia plant response rating", "in_short": "as §1"}, "[6]": {"test_system": "barnyardgrass (Echinochloa crus-galli)", "test": "Test A preemergence", "conditions": "Echinochloa crus-galli, pre-emergence, 240 h, 0 to 100 scale where 0 is no effect and 100 is complete control, read-out: Barnyardgrass plant response rating", "in_short": "as §1"}, "[7]": {"test_system": "rice (Oryra sativa)", "test": "Test B flooded paddy test", "conditions": "Oryza sativa, 250 g ai/ha, Flood; 0 to 100 scale where 0 is no effect and 100 is complete control; read-out: Rice plant response rating", "in_short": "(§2)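 Evaluation by eye, against controls, occurred 13–15 d post-treatment in a greenhouse, using a 0 (no effect) to 100 (complete control) scale. Application was into the paddy water, 3 cm deep over the soil, on 2-leaf plants.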"}, "[8]": {"test_system": "sedge, umbrella (small-flower umbrella sedge, Cyperus difformis)", "test": "Test B flooded paddy test", "conditions": "Cyperus difformis, 250 g ai/ha, Flood; 0 to 100 scale where 0 is no effect and 100 is complete control; read-out: Sedge, Umbrella plant response rating", "in_short": "as §2"}, "[9]": {"test_system": "ducksalad (Heteranthera limosa)", "test": "Test B flooded paddy test", "conditions": "Heteranthera limosa, 250 g ai/ha, Flood; 0 to 100 scale where 0 is no effect and 100 is complete control; read-out: Ducksalad plant response rating", "in_short": "as §2"}, "[10]": {"test_system": "barnyardgrass (Echinochloa crus-galli)", "test": "Test B flooded paddy test", "conditions": "Echinochloa crus-galli, 250 g ai/ha, Flood; 0 to 100 scale where 0 is no effect and 100 is complete control; read-out: Barnyardgrass plant response rating", "in_short": "as §2"}, "[11]": {"test_system": "giant foxtail (Setaria faberii)", "test": "Test A postemergence", "conditions": "Setaria faberi, post-emergence, 240 h, read-out: Foxtail, Giant plant response rating (0 to 100 scale)", "in_short": "as §1"}, "[12]": {"test_system": "corn (Zea mays)", "test": "Test A postemergence", "conditions": "Zea mays, post-emergence, 240 h, read-out: Corn plant response rating (0 to 100 scale)", "in_short": "as §1"}, "[13]": {"test_system": "ryegrass, Italian (Italian ryegrass, Lolium multiflorum)", "test": "Test A postemergence", "conditions": "Lolium multiflorum, post-emergence, 240 h, read-out: Ryegrass, Italian plant response rating (0 to 100 scale)", "in_short": "as §1"}, "[14]": {"test_system": "blackgrass (Alopecurus myosuroides)", "test": "Test A postemergence", "conditions": "Alopecurus myosuroides, post-emergence, 240 h, read-out: Blackgrass plant response rating (0 to 100 scale)", "in_short": "as §1"}, "[15]": {"test_system": "ragweed (common ragweed, Ambrosia elatior)", "test": "Test A postemergence", "conditions": "Ambrosia artemisiifolia, post-emergence, 240 h, read-out: Ragweed plant response rating (0 to 100 scale)", "in_short": "as §1"}, "[16]": {"test_system": "wheat (Triticum aestivum)", "test": "Test A postemergence", "conditions": "Triticum aestivum, post-emergence, 240 h, read-out: Wheat plant response rating (0 to 100 scale)", "in_short": "as §1"}, "[17]": {"test_system": "pigweed (Amaranthus retroflexus)", "test": "Test A postemergence", "conditions": "Amaranthus retroflexus, post-emergence, 240 h, read-out: Pigweed plant response rating (0 to 100 scale)", "in_short": "as §1"}, "[18]": {"test_system": "Kochia (Kochia scoparia)", "test": "Test A postemergence", "conditions": "Bassia scoparia, post-emergence, 240 h, read-out: Kochia plant response rating (0 to 100 scale)", "in_short": "as §1"}, "[19]": {"test_system": "Galium (catchweed bedstraw, Galium aparine)", "test": "Test A postemergence", "conditions": "Galium, post-emergence, 240 h, read-out: Galium plant response rating (0 to 100 scale)", "in_short": "as §1"}, "[20]": {"test_system": "barnyardgrass (Echinochloa crus-galli)", "test": "Test A postemergence", "conditions": "Echinochloa crus-galli, post-emergence, 240 h, read-out: Barnyardgrass plant response rating (0 to 100 scale)", "in_short": "as §1"}, "[21]": {"conditions": "125 g ai/ha, preemergence, visual injury rating, approximately 10 d"}, "[22]": {"conditions": "125 g ai/ha, postemergence, visual injury vs untreated controls after approx. 10 d, 0 = no effect, 100 = complete control"}, "[23]": {"conditions": "Postemergence, 31 g ai/ha, 0 is no effect, 100 is complete control"}},
  "data": [
    {"smiles": "N#Cc1ccc([C@H]2CNC(=O)[C@@H]2C(=O)Nc2cccc(F)c2F)cc1F", "note": "[Compound 1193]", "values": [
      {"measurement": "pest or weed control at 31 g/ha", "setting": "[1]; 31 g ai/ha, Preemergence", "value": 0, "unit": "%"},
      {"measurement": "pest or weed control at 125 g/ha", "setting": "[1]; [21]", "value": 80, "unit": "%"},
      {"measurement": "pest or weed control at 31 g/ha", "setting": "[2]; 31 g ai/ha, Preemergence", "value": 0, "unit": "%"},
      {"measurement": "pest or weed control at 125 g/ha", "setting": "[2]; [21]", "value": 0, "unit": "%"},
      {"measurement": "pest or weed control at 31 g/ha", "setting": "[3]; 31 g ai/ha, Preemergence", "value": 0, "unit": "%"},
      {"measurement": "pest or weed control at 125 g/ha", "setting": "[3]; [21]", "value": 0, "unit": "%"},
      {"measurement": "pest or weed control at 31 g/ha", "setting": "[4]; 31 g ai/ha, Preemergence", "value": 0, "unit": "%"},
      {"measurement": "pest or weed control at 125 g/ha", "setting": "[4]; [21]", "value": 0, "unit": "%"},
      {"measurement": "pest or weed control at 31 g/ha", "setting": "[5]; 31 g ai/ha, Preemergence", "value": 0, "unit": "%"},
      {"measurement": "pest or weed control at 125 g/ha", "setting": "[5]; [21]", "value": 0, "unit": "%"},
      {"measurement": "pest or weed control at 31 g/ha", "setting": "[6]; 31 g ai/ha, Preemergence", "value": 40, "unit": "%"},
      {"measurement": "pest or weed control at 125 g/ha", "setting": "[6]; [21]", "value": 90, "unit": "%"},
      {"measurement": "pest or weed control at 250 g/ha", "setting": "[7]", "value": 30, "unit": "%"},
      {"measurement": "pest or weed control at 250 g/ha", "setting": "[8]", "value": 0, "unit": "%"},
      {"measurement": "pest or weed control at 250 g/ha", "setting": "[9]", "value": 90, "unit": "%"},
      {"measurement": "pest or weed control at 250 g/ha", "setting": "[10]", "value": 75, "unit": "%"},
      {"measurement": "pest or weed control at 125 g/ha", "setting": "[11]; [22]", "value": 30, "unit": "%"},
      {"measurement": "pest or weed control at 31 g/ha", "setting": "[11]; [23]", "value": 0, "unit": "%"},
      {"measurement": "plant injury at 125 g/ha", "setting": "[12]; [22]", "value": 0, "unit": "%"},
      {"measurement": "plant injury at 31 g/ha", "setting": "[12]; [23]", "value": 0, "unit": "%"},
      {"measurement": "pest or weed control at 125 g/ha", "setting": "[13]; [22]", "value": 0, "unit": "%"},
      {"measurement": "pest or weed control at 31 g/ha", "setting": "[13]; [23]", "value": 0, "unit": "%"},
      {"measurement": "pest or weed control at 125 g/ha", "setting": "[14]; [22]", "value": 0, "unit": "%"},
      {"measurement": "pest or weed control at 31 g/ha", "setting": "[14]; [23]", "value": 0, "unit": "%"},
      {"measurement": "pest or weed control at 125 g/ha", "setting": "[15]; [22]", "value": 0, "unit": "%"},
      {"measurement": "pest or weed control at 31 g/ha", "setting": "[15]; [23]", "value": 0, "unit": "%"},
      {"measurement": "plant injury at 125 g/ha", "setting": "[16]; [22]", "value": 0, "unit": "%"},
      {"measurement": "plant injury at 31 g/ha", "setting": "[16]; [23]", "value": 0, "unit": "%"},
      {"measurement": "pest or weed control at 125 g/ha", "setting": "[17]; [22]", "value": 0, "unit": "%"},
      {"measurement": "pest or weed control at 31 g/ha", "setting": "[17]; [23]", "value": 0, "unit": "%"},
      {"measurement": "pest or weed control at 125 g/ha", "setting": "[18]; [22]", "value": 0, "unit": "%"},
      {"measurement": "pest or weed control at 31 g/ha", "setting": "[18]; [23]", "value": 0, "unit": "%"},
      {"measurement": "pest or weed control at 125 g/ha", "setting": "[19]; [22]", "value": 0, "unit": "%"},
      {"measurement": "pest or weed control at 31 g/ha", "setting": "[19]; [23]", "value": 0, "unit": "%"},
      {"measurement": "pest or weed control at 125 g/ha", "setting": "[20]; [22]", "value": 70, "unit": "%"},
      {"measurement": "pest or weed control at 31 g/ha", "setting": "[20]; [23]", "value": 0, "unit": "%"}
    ]}
  ]
}
